Experiment: xn = mol fraction of the nth substance listed
Details: 101.3 kPa

C=C[n+]1ccn(CCCC)c1.N[C@@H](CO)C(=O)[O-] + O
Details | electrical conductivity [S/m] | viscosity [mPa·s]
293.15 K, x1 = 0.1 | – | 6.68
293.15 K, x1 = 0.5 | – | 95.4
293.15 K, x1 = 0.7 | – | 720
293.15 K, x1 = 0.9 | – | 2700
293.15 K, x1 = 1 | – | 18000
303.15 K, x1 = 0.3 | 2.86 | 13.51
303.15 K, x1 = 0.5 | 3.18 | 71.2
303.15 K, x1 = 0.7 | 2.61 | 490
303.15 K, x1 = 1 | 0.006 | 13600
308.15 K, x1 = 0.1 | 1.46 | –
308.15 K, x1 = 0.3 | 3.08 | –
308.15 K, x1 = 0.5 | 3.44 | –
308.15 K, x1 = 0.7 | 2.84 | –
308.15 K, x1 = 1 | 0.007 | –
313.15 K, x1 = 0.1 | 1.61 | 5.94
313.15 K, x1 = 0.3 | 3.31 | 10.76
313.15 K, x1 = 0.5 | 3.75 | 54.6
313.15 K, x1 = 0.7 | 3.19 | 446
313.15 K, x1 = 0.9 | 1.1 | 1159
313.15 K, x1 = 1 | 0.01 | 9100
318.15 K, x1 = 0.1 | 1.78 | –
318.15 K, x1 = 0.3 | 3.65 | –
318.15 K, x1 = 0.5 | 4.05 | –
318.15 K, x1 = 0.7 | 3.43 | –
318.15 K, x1 = 0.9 | 1.42 | –
318.15 K, x1 = 1 | 0.013 | –
323.15 K, x1 = 0.1 | 1.9 | 4.84
323.15 K, x1 = 0.3 | 3.9 | 8.81
323.15 K, x1 = 0.5 | 4.46 | 44.4
323.15 K, x1 = 0.7 | 3.82 | 400
323.15 K, x1 = 0.9 | 1.69 | 820
333.15 K, x1 = 0.1 | – | 4.82
333.15 K, x1 = 0.3 | – | 7.96
333.15 K, x1 = 0.7 | – | 396
333.15 K, x1 = 0.9 | – | 670
333.15 K, x1 = 1 | – | 2800
343.15 K, x1 = 0.1 | – | 4.57
343.15 K, x1 = 0.3 | – | 7.27
343.15 K, x1 = 0.5 | – | 37.75
343.15 K, x1 = 0.7 | – | 387
343.15 K, x1 = 0.9 | – | 610
353.15 K, x1 = 0.3 | – | 7.11
353.15 K, x1 = 0.7 | – | 385
353.15 K, x1 = 0.9 | – | 540

C=C[n+]1ccn(CCCC)c1.NCCCC[C@H](N)C(=O)[O-] + O
Details | electrical conductivity [S/m] | viscosity [mPa·s]
293.15 K, x1 = 0.1 | – | 3.29
293.15 K, x1 = 0.7 | – | 95.3
303.15 K, x1 = 0.1 | 1.99 | 2.85
303.15 K, x1 = 0.3 | 2.61 | 5.21
303.15 K, x1 = 0.7 | 1.91 | 74.7
308.15 K, x1 = 0.3 | 2.78 | –
308.15 K, x1 = 0.5 | 3.12 | –
308.15 K, x1 = 0.7 | 2.3 | –
308.15 K, x1 = 0.9 | 1.23 | –
308.15 K, x1 = 1 | 0.154 | –
313.15 K, x1 = 0.1 | 2.36 | 2.38
313.15 K, x1 = 0.7 | 2.54 | 55.38
313.15 K, x1 = 0.9 | 1.34 | 1167
313.15 K, x1 = 1 | 0.176 | 3700
318.15 K, x1 = 0.1 | 2.51 | –
318.15 K, x1 = 0.3 | 3.29 | –
318.15 K, x1 = 0.5 | 3.6 | –
318.15 K, x1 = 0.7 | 2.95 | –
318.15 K, x1 = 0.9 | 1.45 | –
318.15 K, x1 = 1 | 0.195 | –
323.15 K, x1 = 0.1 | 2.78 | 1.97
323.15 K, x1 = 0.3 | 3.56 | 3.57
323.15 K, x1 = 0.7 | 3.28 | 42.7
323.15 K, x1 = 0.9 | 1.62 | 950
323.15 K, x1 = 1 | 0.214 | 1961
333.15 K, x1 = 0.1 | – | 1.58
333.15 K, x1 = 0.3 | – | 2.36
333.15 K, x1 = 0.5 | – | 36.92
333.15 K, x1 = 0.7 | – | 36.62
333.15 K, x1 = 1 | – | 1174
343.15 K, x1 = 0.3 | – | 2.2
343.15 K, x1 = 0.7 | – | 33.98
343.15 K, x1 = 1 | – | 780
353.15 K, x1 = 0.5 | – | 36.44
353.15 K, x1 = 0.7 | – | 33.87
353.15 K, x1 = 0.9 | – | 185
353.15 K, x1 = 1 | – | 560

C=C[n+]1ccn(CCCC)c1.N[C@@H](Cc1c[nH]cn1)C(=O)[O-] + O
Details | electrical conductivity [S/m] | viscosity [mPa·s]
293.15 K, x1 = 0.1 | – | 2.55
293.15 K, x1 = 0.3 | – | 10.63
293.15 K, x1 = 0.5 | – | 26.91
293.15 K, x1 = 0.7 | – | 92.2
293.15 K, x1 = 0.9 | – | 1475
293.15 K, x1 = 1 | – | 8300
303.15 K, x1 = 0.1 | 2.65 | 2.35
303.15 K, x1 = 0.5 | 3.61 | 21.73
303.15 K, x1 = 0.7 | 2.67 | 59.5
303.15 K, x1 = 1 | 0.07 | 5300
308.15 K, x1 = 0.1 | 2.94 | –
308.15 K, x1 = 0.3 | 3.79 | –
308.15 K, x1 = 0.5 | 3.85 | –
308.15 K, x1 = 0.7 | 2.95 | –
308.15 K, x1 = 0.9 | 0.75 | –
308.15 K, x1 = 1 | 0.089 | –
313.15 K, x1 = 0.1 | 3.12 | 2.08
313.15 K, x1 = 0.3 | 4.12 | 5.88
313.15 K, x1 = 0.5 | 4.08 | 17.2
313.15 K, x1 = 0.7 | 3.27 | 43.6
313.15 K, x1 = 0.9 | 0.99 | 1026
313.15 K, x1 = 1 | 0.123 | 2700
318.15 K, x1 = 0.1 | 3.32 | –
318.15 K, x1 = 0.3 | 4.38 | –
318.15 K, x1 = 0.5 | 4.37 | –
318.15 K, x1 = 0.7 | 3.6 | –
318.15 K, x1 = 0.9 | 1.27 | –
318.15 K, x1 = 1 | 0.162 | –
323.15 K, x1 = 0.1 | 3.58 | 1.7
323.15 K, x1 = 0.3 | 4.7 | 4.81
323.15 K, x1 = 0.5 | 4.58 | 14.68
323.15 K, x1 = 0.7 | 3.83 | 33.63
323.15 K, x1 = 0.9 | 1.64 | 930
333.15 K, x1 = 0.1 | – | 1.46
333.15 K, x1 = 0.5 | – | 14.17
333.15 K, x1 = 0.7 | – | 29.24
333.15 K, x1 = 0.9 | – | 550
333.15 K, x1 = 1 | – | 810
343.15 K, x1 = 0.1 | – | 1.04
343.15 K, x1 = 0.3 | – | 4
343.15 K, x1 = 0.5 | – | 13.4
343.15 K, x1 = 0.9 | – | 327
343.15 K, x1 = 1 | – | 500
353.15 K, x1 = 0.1 | – | 0.95
353.15 K, x1 = 0.3 | – | 3.68
353.15 K, x1 = 0.7 | – | 29
353.15 K, x1 = 0.9 | – | 116
353.15 K, x1 = 1 | – | 331

C=Cn1cc[n+](CCCC)c1.NCC(=O)[O-] + O
Details | electrical conductivity [S/m] | viscosity [mPa·s]
293.15 K, x1 = 0.1 | – | 7.17
293.15 K, x1 = 0.3 | – | 23.93
293.15 K, x1 = 0.7 | – | 403
293.15 K, x1 = 1 | – | 11700
303.15 K, x1 = 0.1 | 1.04 | 7.07
303.15 K, x1 = 0.3 | 1.75 | 19.67
303.15 K, x1 = 0.7 | 1.58 | 282
303.15 K, x1 = 0.9 | 0.412 | 1068
308.15 K, x1 = 0.3 | 1.94 | –
308.15 K, x1 = 0.5 | 2.95 | –
313.15 K, x1 = 0.1 | 1.19 | 6.73
313.15 K, x1 = 0.3 | 2.16 | 14.44
313.15 K, x1 = 0.5 | 3.34 | 33.65
313.15 K, x1 = 0.7 | 2.31 | 199
313.15 K, x1 = 0.9 | 0.653 | 730
313.15 K, x1 = 1 | 0.013 | 5900
318.15 K, x1 = 0.1 | 1.29 | –
318.15 K, x1 = 0.3 | 2.44 | –
318.15 K, x1 = 0.7 | 2.87 | –
318.15 K, x1 = 0.9 | 0.89 | –
318.15 K, x1 = 1 | 0.018 | –
323.15 K, x1 = 0.1 | 1.35 | 6.71
323.15 K, x1 = 0.3 | 2.63 | 11.28
323.15 K, x1 = 0.5 | 4.09 | 28.63
323.15 K, x1 = 0.7 | 3.25 | 168
323.15 K, x1 = 0.9 | 1.2 | 570
323.15 K, x1 = 1 | 0.021 | 3100
333.15 K, x1 = 0.1 | – | 5.87
333.15 K, x1 = 0.5 | – | 28.1
333.15 K, x1 = 0.7 | – | 156
333.15 K, x1 = 0.9 | – | 540
343.15 K, x1 = 0.1 | – | 5.29
343.15 K, x1 = 0.5 | – | 22.04
343.15 K, x1 = 0.7 | – | 132
343.15 K, x1 = 0.9 | – | 540
353.15 K, x1 = 0.1 | – | 5.08
353.15 K, x1 = 0.3 | – | 9.83
353.15 K, x1 = 0.7 | – | 104.8

Source: a compilation of properties of binary mixtures (doi:10.1016/j.molliq.2022.119944)
